From PubChem BioAssay (NCI)
Where “and” joins values, the source holds several entries; their conditions need not be identical. Equal values may be shown once.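 Following 48 hours of exposure in 96-well plates, responses at five concentrations were used to interpolate endpoints linearly. GI50 marks 50% less growth. TGI is the concentration that stops growth completely.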

Columns and labels:
Assay in all cases: NCI anticancer screen, dose series, 48 h
NCI-H460 lung = system: NCI-H460 lung
UACC-62 melanoma = system: UACC-62 melanoma
HT29 colon = system: HT29 colon
SF-295 CNS = system: SF-295 CNS
K-562 leukemia = system: K-562 leukemia
NCI-H226 lung = system: NCI-H226 lung
PC-3 prostate = system: PC-3 prostate
HCT-15 colon = system: HCT-15 colon
UACC-257 melanoma = system: UACC-257 melanoma
U251 CNS = system: U251 CNS

## COC(=O)[C@@]1(Cc2ccccc2)[C@H]2c3cc(C(=O)N4CCCC4)n(Cc4ccc(OC)c(OC)c4)c3C[C@H]2CN1C(=O)c1ccccc1
NCI-H460 lung
  GI50: 9.12 µM
  TGI: 18.9 µM
UACC-62 melanoma
  GI50: 7.49 µM
  TGI: 15.8 µM
HT29 colon
  GI50: 9.12 µM
  TGI: 25 µM
SF-295 CNS
  GI50: 12.7 µM
  TGI: 34.4 µM
K-562 leukemia
  GI50: 9.27 µM
  TGI: 37.3 µM
NCI-H226 lung
  GI50: 9.78 µM
  TGI: 19.3 µM
PC-3 prostate
  GI50: 22.6 µM
  TGI: > 50 µM
HCT-15 colon
  GI50: 7.77 µM
  TGI: 14.5 µM
UACC-257 melanoma
  GI50: 7.72 µM
  TGI: 15.2 µM
U251 CNS
  GI50: 13 µM
  TGI: 40.7 µM

## O=C1/C=C/[C@@H](O)[C@@H]2C[C@@H](O)C[C@H]2/C=C/CCC[C@H](CCc2ccc(C(F)(F)F)cc2)O1
NCI-H460 lung
  GI50: 0.388 µM
  TGI: > 55.4 µM
UACC-62 melanoma
  GI50: 0.169 µM
  TGI: 17.3 µM
HT29 colon
  GI50: 0.127 µM
  TGI: 2.1 µM
SF-295 CNS
  GI50: 0.188 µM
  TGI: 47.8 µM
K-562 leukemia
  GI50: 0.444 µM
  TGI: > 100 µM
NCI-H226 lung
  GI50: 0.0539 µM
  TGI: 0.513 µM
PC-3 prostate
  GI50: 0.401 µM
  TGI: > 83.3 µM
HCT-15 colon
  GI50: 0.34 µM
  TGI: 2.36 µM
UACC-257 melanoma
  GI50: 0.182 µM
  TGI: > 40.2 µM
U251 CNS
  GI50: 0.272 µM
  TGI: 21.3 µM

## COc1ccc(-c2nsc3c2NC(=O)CC3c2ccc(F)cc2)cc1 (centres undefined)
NCI-H460 lung
  GI50: 3.46 µM
  TGI: > 100 µM
UACC-62 melanoma
  GI50: 4.66 µM
  TGI: > 100 µM
HT29 colon
  GI50: 2.84 µM
  TGI: 27.6 µM
SF-295 CNS
  GI50: 4.08 µM
  TGI: > 29.1 µM
K-562 leukemia
  GI50: 1.37 µM
  TGI: > 100 µM
NCI-H226 lung
  GI50: 8.67 µM
  TGI: > 100 µM
PC-3 prostate
  GI50: 3.33 µM
  TGI: > 100 µM
HCT-15 colon
  GI50: 2.16 µM
  TGI: > 100 µM
UACC-257 melanoma
  GI50: 16.6 µM
  TGI: > 100 µM
U251 CNS
  GI50: 4 µM
  TGI: > 100 µM

## CN[C@@H](C)C(=O)N[C@H]1CN(C(=O)CC(C)C)CC[C@H]2CC[C@@H](C(=O)NC(c3ccccc3)c3ccccc3)N2C1=O
NCI-H460 lung
  GI50: > 100 µM
  TGI: > 100 µM
UACC-62 melanoma
  GI50: > 100 µM
  TGI: > 100 µM
HT29 colon
  GI50: 53.2 µM
  TGI: > 100 µM
SF-295 CNS
  GI50: > 100 µM
  TGI: > 100 µM
K-562 leukemia
  GI50: 97.9 µM
  TGI: > 100 µM
NCI-H226 lung
  GI50: > 100 µM
  TGI: > 100 µM
PC-3 prostate
  GI50: > 100 µM
  TGI: > 100 µM
HCT-15 colon
  GI50: > 100 µM
  TGI: > 100 µM
UACC-257 melanoma
  GI50: > 74.3 µM
  TGI: > 100 µM
U251 CNS
  GI50: > 100 µM
  TGI: > 100 µM

## C/C1=C/C(=O)O[C@@H]2C[C@@H](CC[C@H](C)/C=C\C=C\CC1)O[C@@](O)([C@@H]1CSC(=O)N1CO)C2
NCI-H460 lung
  GI50: 0.241 µM
  TGI: 34.1 µM
UACC-62 melanoma
  GI50: 0.0863 µM
  TGI: 26.2 µM
HT29 colon
  GI50: 0.0562 µM
  TGI: 20.3 µM
SF-295 CNS
  GI50: 0.0414 µM
  TGI: 20.5 µM
K-562 leukemia
  GI50: 0.213 µM
  TGI: 27.1 µM
NCI-H226 lung
  GI50: 0.104 µM
  TGI: > 100 µM
PC-3 prostate
  GI50: 0.0367 µM
  TGI: 3.13 µM
HCT-15 colon
  GI50: 0.0689 µM
  TGI: > 91.4 µM
UACC-257 melanoma
  GI50: 0.42 µM
  TGI: 16 µM
U251 CNS
  GI50: 0.0992 µM
  TGI: 13.6 µM

## COC(=O)[C@H]1C(=O)[C@@]2(C)[C@H]([C@H](OC(=O)c3ccccc3)[C@]3(O)C[C@H](OC(=O)[C@H](O)[C@@H](NC(=O)c4ccc(F)cc4)c4ccccc4)C(C)=C1C3(C)C)[C@]1(OC(C)=O)CO[C@@H]1C[C@@H]2O
NCI-H460 lung
  GI50: 0.00739 µM
  TGI: 3.64 µM
UACC-62 melanoma
  GI50: 0.0122 µM
  TGI: > 25 µM
HT29 colon
  GI50: 0.00378 µM
  TGI: > 25 µM
SF-295 CNS
  GI50: 0.00919 µM
  TGI: 0.0639 µM
K-562 leukemia
  GI50: 0.00917 µM
NCI-H226 lung
  GI50: 0.612 µM
  TGI: > 25 µM
PC-3 prostate
  GI50: 0.0164 µM
  TGI: > 25 µM
HCT-15 colon
  GI50: 0.553 µM
  TGI: > 25 µM
UACC-257 melanoma
  GI50: 0.0673 µM
  TGI: > 25 µM
U251 CNS
  GI50: 0.0103 µM
  TGI: > 25 µM

## COc1cc2c3c(c4ccc(OC)c(OC)c4c2cc1OC)CN1CCC[C@@H]1C3
NCI-H460 lung
  TGI: 2.09 µM
UACC-62 melanoma
  TGI: 0.35 µM
HT29 colon
  TGI: 0.593 µM
SF-295 CNS
  TGI: 6.39 µM
K-562 leukemia
  TGI: > 100 µM
NCI-H226 lung
  TGI: 0.263 µM
PC-3 prostate
  TGI: 6.58 µM
HCT-15 colon
  TGI: 11.4 µM
UACC-257 melanoma
  TGI: 17.7 µM
U251 CNS
  TGI: > 23.3 µM

## COc1cc(-c2nc(NC(C)=O)sc2-c2ccnc(NCCNS(=O)(=O)c3ccccc3)n2)ccc1Cl
NCI-H460 lung
  GI50: 3.08 µM
  TGI: 10.8 µM
UACC-62 melanoma
  GI50: 2.61 µM
  TGI: > 100 µM
HT29 colon
  GI50: 2.94 µM
  TGI: > 100 µM
SF-295 CNS
  GI50: 2.74 µM
  TGI: 13.4 µM
K-562 leukemia
  GI50: 3.87 µM
  TGI: > 100 µM
NCI-H226 lung
  GI50: 6.45 µM
  TGI: > 100 µM
PC-3 prostate
  GI50: 2.88 µM
  TGI: > 100 µM
HCT-15 colon
  GI50: 3.78 µM
  TGI: > 100 µM
UACC-257 melanoma
  GI50: 5.37 µM
  TGI: > 100 µM
U251 CNS
  GI50: 5.22 µM
  TGI: > 100 µM

## CN1CCC(CNc2ccc3ncc(-c4cccc(OC(F)(F)F)c4)n3n2)CC1
NCI-H460 lung
  GI50: 2.16 µM and 2.94 µM
  TGI: 5.68 µM and > 10 µM
UACC-62 melanoma
  GI50: 1.76 µM
  TGI: 3.66 µM
HT29 colon
  GI50: 1.75 µM and 1.85 µM
  TGI: 4.49 µM and 5.15 µM
SF-295 CNS
  GI50: 1.67 µM and 1.55 µM
  TGI: 3.48 µM and 3.87 µM
K-562 leukemia
  GI50: 1.65 µM and 1.7 µM
  TGI: 4.95 µM and 6.01 µM
NCI-H226 lung
  GI50: 1.82 µM and 3.62 µM
  TGI: 8.49 µM and > 10 µM
PC-3 prostate
  GI50: 1.67 µM and 2.41 µM
  TGI: 7.13 µM and > 10 µM
HCT-15 colon
  GI50: 2 µM and 2.45 µM
  TGI: 4.78 µM and > 10 µM
UACC-257 melanoma
  GI50: 1.51 µM and 1.44 µM
  TGI: 3.05 µM and 2.8 µM
U251 CNS
  GI50: 1.6 µM and 1.44 µM
  TGI: 3.23 µM and 2.97 µM

## COc1cccc(Cn2c(-c3nonc3N)nc3ccccc32)c1
NCI-H460 lung
  GI50: 0.378 µM
  TGI: > 34.6 µM
UACC-62 melanoma
  GI50: 0.493 µM
  TGI: > 100 µM
HT29 colon
  GI50: 0.345 µM
SF-295 CNS
  GI50: 0.307 µM
K-562 leukemia
  GI50: 0.355 µM
  TGI: > 100 µM
NCI-H226 lung
  GI50: 1.16 µM
  TGI: > 22 µM
PC-3 prostate
  GI50: 0.435 µM
  TGI: > 84.2 µM
HCT-15 colon
  GI50: 0.399 µM
  TGI: > 100 µM
UACC-257 melanoma
  GI50: 0.314 µM
  TGI: > 100 µM
U251 CNS
  GI50: 0.436 µM
  TGI: > 92.2 µM

## C=CC(=O)N1C/C(=C\c2ccccc2)C(=O)/C(=C/c2ccccc2)C1
NCI-H460 lung
  TGI: 4.47 µM
UACC-62 melanoma
  TGI: 3.68 µM
HT29 colon
  GI50: 0.528 µM
  TGI: 2.87 µM
SF-295 CNS
  TGI: 5.07 µM
K-562 leukemia
  GI50: 0.174 µM
  TGI: 4.04 µM
NCI-H226 lung
  TGI: 10.6 µM
PC-3 prostate
  TGI: 3.91 µM
HCT-15 colon
  TGI: 4 µM
UACC-257 melanoma
  TGI: 4.29 µM
U251 CNS
  GI50: 0.376 µM
  TGI: 2.62 µM

## Sc1ccc2ccccc2c1CNCc1ccccc1
NCI-H460 lung
  TGI: > 100 µM
UACC-62 melanoma
  TGI: 28.6 µM
HT29 colon
  TGI: > 100 µM
SF-295 CNS
  TGI: 47.3 µM
K-562 leukemia
  TGI: 39 µM
NCI-H226 lung
  TGI: 12.3 µM
PC-3 prostate
  TGI: > 100 µM
HCT-15 colon
  TGI: 88.6 µM
UACC-257 melanoma
  TGI: > 100 µM
U251 CNS
  TGI: 30.8 µM

## O=C1/C(=C\c2ccc(F)cc2)CN(C(=O)c2ccc([N+](=O)[O-])cc2)C/C1=C\c1ccc(F)cc1
NCI-H460 lung
  GI50: 4.26 µM
  TGI: > 40.4 µM
UACC-62 melanoma
  GI50: 1.98 µM
  TGI: 6.27 µM
HT29 colon
  GI50: 0.517 µM
  TGI: 3.52 µM
SF-295 CNS
  GI50: 2.99 µM
  TGI: 16.4 µM
K-562 leukemia
  GI50: 0.915 µM
  TGI: > 43.2 µM
NCI-H226 lung
  TGI: > 21.4 µM
PC-3 prostate
  GI50: 2.14 µM
  TGI: 14.5 µM
HCT-15 colon
  GI50: 1.31 µM
  TGI: 4.31 µM
UACC-257 melanoma
  GI50: 4.17 µM
  TGI: 28.1 µM
U251 CNS
  GI50: 1.55 µM
  TGI: 3.97 µM
